Experimental findings from US8377424B2, “Treatment of periodontal disease” (Mars, Incorporated, priority 1996, dated 2013) are described below.

Series [1] is described as follows: Rancimat oxidative stability test of peanut oil. The settings on record: Rancimat 100° C., 20 cc/min air, control 10.5 ± 0.7. How it is done:
The procedures described in Examples 1, 2 and 3 were used to prepare cocoa extracts which were manipulated further to produce two fractions from gel permeation chromatography. These two fractions are actually combined fractions A through C, and D and E (See FIG. 1) whose antioxidant properties were compared against the synthetic antioxidants BHA and BHT.
Peanut Oil was pressed from unroasted peanuts after the skins were removed. 50 μL of methanol solubilized antioxidant was added to each sample to aid in dispersion of the antioxidant. A control sample was prepared with 50 μL of methanol containing no antioxidant.
The samples were evaluated in duplicate, for oxidative stability using the Rancimat stability test at 100° C. and 20 cc/min of air. Experimental parameters were chosen to match those used with the Active oxygen Method (AOM) or Swift Stability Test (Van oosten et al., 1981). Results are reported in Table 8 as hours required to reach a peroxide level of 100 meq.

The next series deals with Helicobacter pylori. The series is described as follows: Disk diffusion bioassay, H. pylori. The format is cell-based. The settings on record: control disk containing 80 ug metronidazole. The procedure:
(§1) A study was conducted to evaluate the antimicrobial activity of procyanidin oligomers against Helicobacter pylori and Staphylococcus aureus. Pentamer enriched material was prepared as described in Example 13, Method A and analyzed as described in Example 14, Method C, where 89% was pentamer, and 11% was higher oligomers (n is 6 to 12). Purified pentamer (96.3%) was prepared as described in Example 14, Method D.
(§2) Helicobacter pylori and Staphylococcus aureus were obtained from the American Type Culture Collection (ATCC). For H. pylori, the vial was rehydrated with 0.5 mL Trypticase Soy broth and the suspension transferred to a slant of fresh TSA containing 5% defibrinated sheep blood. The slant was incubated at 37° C. for 3 to 5 days under microaerophilic conditions in anaerobic jars (5 to 10% carbon dioxide; CampyPakPlus, BBL). When good growth was established in the pool of broth at the bottom of the slant, the broth was used to inoculate additional slants of TSA with sheep blood. Because viability decreased with continued subculturing, the broth harvested from the slants was pooled and stored at −80° C. Cultures for assay were used directly from the frozen vials. […]
(§3) A cell suspension of each culture was prepared (H. pylori, 10^8 to 10^9 cfu/mL; S. aureus 10^6 to 10^7 cfu/mL) and 0.5 mL spread onto TSA plates with 5% sheep blood. […] Zones of inhibition were measured following outgrowth.

For another series, the system named is Staphylococcus aureus. The series can be described thus: Disk diffusion bioassay, S. aureus. It counts as cell-based. The settings on record: control disk containing 30 ug vancomycin. The procedure:
as §1, §2, §3

Take `Cc1cc(C(C)(C)C)c(O)c(C(C)(C)C)c1` [BHT, Butylated Hydroxytoluene]: the “Oxidative Stability of Peanut Oil, hours required to reach a peroxide level of 100 meq, average” value worked out at 16.5 ± 2.1 h in series [1] (20 ppm) and 12.5 ± 2.1 h in series [1] (100 ppm).
In the case of `Cc1ncc([N+](=O)[O-])n1CCO` [Metronidazole, metronidazole], the “H. pylori Inhibition” value with Helicobacter pylori is listed as 11 mm.
For `CN[C@H](CC(C)C)C(=O)N[C@H]1C(=O)N[C@@H](CC(N)=O)C(=O)N[C@H]2C(=O)N[C@H]3C(=O)N[C@H](C(=O)N[C@H](C(=O)O)c4cc(O)cc(O)c4-c4cc3ccc4O)[C@H](O)c3ccc(c(Cl)c3)Oc3cc2cc(c3O[C@@H]2O[C@H](CO)[C@@H](O)[C@H](O)[C@H]2O[C@H]2C[C@](C)(N)[C@H](O)[C@H](C)O2)Oc2ccc(cc2Cl)[C@H]1O` [Vancomycin, vancomycin], in the series on Staphylococcus aureus, the “S. aureus Inhibition” value turned out to be 15 mm.
